Source: US11952364B2, “TRK inhibitors useful as anticancer drugs” (TYLIGAND BIOSCIENCE (SHANGHAI) LIMITED, priority 2018, dated 2024)
Where two headings read alike, the source gives them in different places.

Tested on: Ba/F3 ETV6-NTRK3-G696C cells
Experiment: Proliferation of Ba/F3 ETV6-NTRK3-G696C cells (CellTiter-Glo)
Format: cell-based, mouse
From the text: Ba/F3 ETV6-NTRK3-G696C is a stable transgenic cell line constructed by KYinno Biotechnology Co., Ltd. on mouse primary B cell Ba/F3 wherein NTRK3 is highly expressed with a mutation of G at position […] to C and fused with ETV6 to form ETV6-NTRK3. • [Test method]: Promega's CellTiter-Glo® Luminescent Cell Viability Assay kit was used to evaluate the inhibitory activity of the compounds on the proliferation of Ba/F3 ETV6-NTRK3-G696C cells. • [Instrument]: Spectramax M3 multifunctional microplate reader from Molecular Devices. • [Test materials]: Ba/F3 ETV6-NTRK3-G696C cell line (constructed by KYinno Biotechnology Co., Ltd. (Beijing)), 96-well transparent flat-bottomed black-walled cell culture plate (Corning, cat #3603), RPMI-1640 media (GE, product number #SH30027.01), fetal bovine serum FBS (Thermo Fisher, cat #10099-141), CellTiter-Glo® Luminescent Cell Viability Assay kit (Promega, cat #G7572), PBS (Solarbio, cat #P1020), DMSO (Sigma, cat #D2650). • [Experimental procedure]: When resuscitating Ba/F3 ETV6-NTRK3-G696C cells, • the freezing tube was quickly shaken in a 37° C. water bath to melt within 1 minute. The thawed cell suspension was mixed uniformly with RPMI1640 medium containing 10% FBS, centrifuged at 1000 rpm for 5 minutes, and the supernatant discarded. 5 mL of complete medium (RPMI1640 medium with 10% FBS) was taken to resuspend the cell pellets, charged into a cell culture flask with a bottom area of 25 cm^2, and incubated in a cell incubator at 37° C., 95% humidity and 5% CO2. Cells were allowed to passage when the number of cells reached about 10^6 cells/mL. For cell passage, the old cell suspension was directly pipetted evenly, 1/5 of the cell suspension was kept, 4 mL of new complete medium was added, after pipetting evenly, the cell flask was placed in the cell incubator for further culturing. Cell plating was performed when the number of cells reached about 10^6 cells/mL again. For cell plating, 1/5 of the cell suspension was kept for further culturing as in the cell passage method, and the remaining 4/5 of the cell suspension was placed in a 15 mL centrifuge tube, detected for cell viability by Trypan blue exclusion method to ensure that cell viability was above 90%. A cell suspension with a density of 5.56×10^4 viable cells/mL was prepared with complete medium, and 90 μL of such cell suspension was added to a 96-well cell culture plate to obtain the cell density of 5000 viable cells/mL in the cell culture plate. A control group containing no cells, no compound and only complete medium (i.e. culture medium control) and a control group containing no compound but containing cells (i.e. cell control) were set. The cell plate was placed in a cell incubator overnight. The 10 mM compound stock solution in DMSO was first serially diluted with DMSO at a dilution factor of 3.16 times, to obtain 9 concentrations, and the 10th concentration was set as DMSO control without compound. Then, PBS was used to dilute the DMSO solutions of compounds of different concentrations, at a dilution factor of 100 times, so that the DMSO concentration in the compound solution of each concentration was 1%. Finally, 10 μL of each of the above solutions was added to the corresponding cell culture plate, so that the initial compound concentration was 10 μM, with the remaining concentrations being successively diluted at a dilution factor of 3.16 times, and the DMSO content in the cell culture plate was 0.1%. The cell plate was placed in a cell incubator and cultured for 72 hours. For endpoint detection, the CellTiter-Glo reagent was melted, and the cell plate was moved to room temperature to equilibrate for 30 minutes, added with 100 μL of CellTiter-Glo for each well, and shaken on an orbital shaker for 5 minutes to fully lyse the cells. […]

[1] = Mus musculus, BaF3, Table 9, read-out: Ba/F3 ETV6-NTRK3-G696C cell proliferation inhibitory activity (IC50)
[2] = Mus musculus, BaF3, Table 7-2, separate test, read-out: Ba/F3 ETV6-NTRK3-G696C, IC50
[3] = Mus musculus, BaF3, 72 h, Table 7, 72 hours, read-out: Ba/F3 ETV6-NTRK3-G696C, IC50
[4] = Mus musculus, BaF3, Table 7-1, separate test, read-out: Ba/F3 ETV6-NTRK3-G696C, IC50

Row | IC50 [2] [nM] | IC50 [3] [nM] | SMILES | also measured
1 | – | – | Cc1ccc(C(=O)Nc2ccc(Oc3cc4cnn5c4c(c3-c3cn[nH]c3)CC5)c(F)c2)c(=O)n1-c1ccc(F)cc1 [Example 31, N-(4-((5-(1H-pyrazol-4-yl)-6,7-dihydropyrrolo[3,2,1-hi]-indazol-4-yl)oxy)-3-fluorophenyl)-1-(4-fluorophenyl)-6-methyl-2-oxo-1,2-dihydropyridine-3-carboxamide] | IC50 [1]: 5.3 nM
2 | – | – | CC(C)Oc1ccc(C(=O)Nc2ccc(Oc3cc4cnn5c4c(c3-c3cn[nH]c3)CC5)c(F)c2)c(=O)n1-c1ccc(F)cc1 [Example 34, N-(4-((5-(1H-pyrazol-4-yl)-6,7-dihydropyrrolo[3,2,1-hi]-indazol-4-yl)oxy)-3-fluorophenyl)-1-(4-fluorophenyl)-6-isopropoxy-2-oxo-12-dihydropyrndine-3-carboxamide] | IC50 [1]: 4.8 nM
3 | 3.1 | – | CCn1ncc2cc(Oc3ccc(NC(=O)c4ccc(OC(C)C)n(-c5ccc(F)cc5)c4=O)cc3F)c(-c3cn[nH]c3)cc21 [Example 26, N-(3-fluoro-4-(1-ethyl-6-(1H-pyrazol-4-yl)-1H-indazol-5-yloxy)phenyl)-1-(4-fluorophenyl)-6-isopropoxy-2-oxo-1,2-dihydropyridine-3-carboxamide] | –
4 | – | 16 | CC(C)c1ccc(C(=O)Nc2ccc(Oc3cc4cnn(C)c4cc3-c3cn[nH]c3)c(F)c2)c(=O)n1-c1ccc(F)cc1 [Example 6, N-(3-fluoro-4-(1-methyl-6-(1H-pyrazol-4-yl)-1H-indazol-5-yloxy)phenyl)-1-(4-fluorophenyl)-6-isopropyl-2-oxo-1,2-dihydropyridine-3-carboxamide] | –
5 | 1.9 | – | Cn1ncc2cc(Oc3ccc(NC(=O)c4ccc(OC5CC5)n(-c5ccc(F)cc5)c4=O)cc3F)c(-c3cn[nH]c3)cc21 [Example 15, N-(3-fluoro-4-(1-methyl-6-(1H-pyrazol-4-yl)-1H-indazol-5-yloxy)phenyl)-1-(4-fluorophenyl)-6-cyclopropoxy-2-oxo-1,2-dihydropyridine-3-carboxamide] | –
6 | 1.2 | – | CC(C)Oc1ccc(C(=O)Nc2ccc(Oc3cc4cnn(C)c4cc3-c3cn[nH]c3)c(F)c2)c(=O)n1-c1ccc(F)cc1 [Example 16, N-(3-fluoro-4-(1-methyl-6-(1H-pyrazol-4-yl)-1H-indazol-5-yloxy)phenyl)-1-(4-fluorophenyl)-6-isopropoxy-2-oxo-1,2-dihydropyridine-3-carboxamide] | –
7 | – | – | COc1ccc(C(=O)Nc2ccc(Oc3cc4cnn5c4c(c3-c3cn[nH]c3)CC5)c(F)c2)c(=O)n1-c1ccc(F)cc1 [Example 28, N-(4-((5-(1H-pyrazol-4-yl)-6,7-dihydropyrrolo[3,2,1-hi]-indazol-4-yl)oxy)-3-fluorophenyl)-1-(4-fluorophenyl)-6-methoxy-2-oxo-1,2-dihydropyidine-3-carboxamide] | IC50 [1]: 3.6 nM
8 | – | 1890 | O=C(Nc1cnn2ccc(N3CCC[C@@H]3c3cc(F)ccc3F)nc12)N1CC[C@H](O)C1 [LOXO-101, Larotrectinib, reference compound] | –
9 | – | – | COc1ccc(C(=O)Nc2ccc(Oc3cc4cnn(C)c4cc3-c3cn[nH]c3)c(F)c2)c(=O)n1-c1ccc(F)cc1 [Example 12, N-(3-fluoro-4-(1-methyl-6-(1H-pyrazol-4-yl)-1H-indazol-5-yloxy)phenyl)-1-(4-fluorophenyl)-6-methoxy-2-oxo-1,2-dihydropyridine-3-carboxamide] | IC50 [4]: 3 nM
10 | – | 33 | Cn1ncc2cc(Oc3ccc(NC(=O)c4ccc(C(F)(F)F)n(-c5ccc(F)cc5)c4=O)cc3F)c(-c3cn[nH]c3)cc21 [Example 1, N-(3-fluoro-4-(1-methyl-6-(1H-pyrazol-4-yl)-1H-indazol-5-yloxy)phenyl)-1-(4-fluorophenyl)-6-trifluoromethyl-2-oxo-1,2-dihydmpyridine-3-carboxamide monomethanesulfonate] | –
11 | – | 20 | Cn1ncc2cc(Oc3ccc(NC(=O)c4ccc(C5CC5)n(-c5ccc(F)cc5)c4=O)cc3F)c(-c3cn[nH]c3)cc21 [Example 2, N-(3-fluoro-4-(1-methyl-6-(1H-pyrazol-4-yl)-1H-indazol-5-yloxy)phenyl)-1-(4-fluorophenyl)-6-cyclopropyl-2-oxo-1,2-dihydmpyridine-3-carboxamide] | –
12 | – | – | CCOc1ccc(C(=O)Nc2ccc(Oc3cc4cnn(CC)c4cc3-c3cn[nH]c3)c(F)c2)c(=O)n1-c1ccc(F)cc1 [Example 24, N-(3-fluoro-4-(1-ethyl-6-(1H-pyrazol-4-yl)-1H-indazol-5-yloxy)phenyl)-1-(4-fluorophenyl)-6-ethoxy-2-oxo-12-dihydropyridine-3-carboxamide] | IC50 (Table 7-2, separate test, read-out: Ba/F3 ETV6-NTRK3-G696C, IC50): 3.5 nM
13 | 1.7 | 10 | Cc1ccc(C(=O)Nc2ccc(Oc3cc4cnn(C)c4cc3-c3cn[nH]c3)c(F)c2)c(=O)n1-c1ccc(F)cc1 [Merestinib, reference compound] | IC50 [4]: 13 nM
14 | – | – | CCn1ncc2cc(Oc3ccc(NC(=O)c4ccc(OC)n(-c5ccc(F)cc5)c4=O)cc3F)c(-c3cn[nH]c3)cc21 [Example 23, N-(3-fluoro-4-(1-ethyl-6-(1H-pyrazol-4-yl)-1H-indazol-5-yloxy)phenyl)-1-(4-fluorophenyl)-6-methoxy-2-oxo-1,2-dihydropyridine-3-carboxamide] | IC50 [4]: 11 nM
15 | 1.8 | – | CSc1ccc(C(=O)Nc2ccc(Oc3cc4cnn(C)c4cc3-c3cn[nH]c3)c(F)c2)c(=O)n1-c1ccc(F)cc1 [Example 11, N-(3-fluoro-4-(1-methyl-6-(1H-pyrazol-4-yl)-1H-indazol-5-yloxy)phenyl)-1-(4-fluorophenyl)-6-methylthio-2-oxo-1,2-dihydropyidine-3-carboxamide] | –
16 | – | – | CCn1ncc2cc(Oc3ccc(NC(=O)c4ccc(C5CC5)n(-c5ccc(F)cc5)c4=O)cc3F)c(-c3cn[nH]c3)cc21 [Example 19, N-(3-fluoro-4-(1-ethyl-6-(1H-pyrazol-4-yl)-1H-indazol-5-yloxy)phenyl)-1-(4-fluorophenyl)-6-cyclopropyl-2-oxo-1,2-dihydropyridine-3-carboxamide] | IC50 [4]: 14 nM
17 | – | – | CCOc1ccc(C(=O)Nc2ccc(Oc3cc4cnn5c4c(c3-c3cn[nH]c3)CC5)c(F)c2)c(=O)n1-c1ccc(F)cc1 [Example 32, N-(4-((5-(1H-pyrazol-4-yl)-6,7-dihydropyrrolo[3,2,1-hi]-indazol-4-yl)oxy)-3-fluorophenyl)-6-ethoxy-1-(4-fluorophenyl)-2-oxo-12-dihydropyridine-3-carboxamide] | IC50 [1]: 4.7 nM
18 | – | 34 | Cc1ccc(C(=O)Nc2ccc(Oc3cc4cnn(C(C)C)c4cc3-c3cn[nH]c3)c(F)c2)c(=O)n1-c1ccc(F)cc1 [Example 4, N-(3-fluoro-4-(1-isopropyl-6-(1H-pyrazol-4-yl)-1H-indazol-5-yloxy)phenyl)-1-(4-fluorophenyl)-6-methyl-2-oxo-1,2-dihydmpyridine-3-carboxamide] | –
19 | – | 18 | CCn1ncc2cc(Oc3ccc(NC(=O)c4ccc(C)n(-c5ccc(F)cc5)c4=O)cc3F)c(-c3cn[nH]c3)cc21 [Example 3, N-(3-fluoro-4-(1-ethyl-6-(1H-pyrazol-4-yl)-1H-indazol-5-yloxy)phenyl)-1-(4-fluorophenyl)-6-methyl-2-oxo-1,2-dihydmpyridine-3-carboxamide] | –
20 | 1.6 | – | CCOc1ccc(C(=O)Nc2ccc(Oc3cc4cnn(C)c4cc3-c3cn[nH]c3)c(F)c2)c(=O)n1-c1ccc(F)cc1 [Example 14, N-(3-fluoro-4-(1-methyl-6-(1H-pyrazol-4-yl)-1H-indazol-5-yloxy)phenyl)-1-(4-fluorophenyl)-6-ethoxy-2-oxo-12-dihydropyridine-3-carboxamide] | –
